{
  "source": "patent EP0049968A1",
  "about": "“Pharmaceutical compositions” (priority 1980, dated 1982)",
  "tested_on": "highly resistant E.coli strains (producing a plasmid mediated β-lactamase)",
  "test": "MIC of compound (i) alone and in combination with compound (iii), E. coli strains",
  "format": "cell-based",
  "settings": "for MIC: Escherichia coli, compound (i) alone",
  "note": "Where two headings read alike, the source gives them in different places.",
  "data": [
    {"smiles": "CC1(C)S[C@@H]2[C@H](NC(=O)[C@H](NC(=O)Nc3cnc(Nc4ccc(S(N)(=O)=O)cc4)nc3O)c3ccc(O)cc3)C(=O)N2[C@H]1C(=O)O", "note": "[compound (i)]", "values": [
      {"measurement": "MIC", "setting": "read-out: MIC µg/ml compound (i) alone, Geometric mean (± 95% confidence limits), geometric mean of 11 E. coli strains", "value": "> 160", "unit": "µg/mL"},
      {"measurement": "MIC", "setting": "read-out: MIC µg/ml compound (i) alone, strain E96", "value": "> 160", "unit": "µg/mL"},
      {"measurement": "MIC", "setting": "read-out: MIC µg/ml compound (i) alone, strain E110", "value": "> 160", "unit": "µg/mL"},
      {"measurement": "MIC", "setting": "read-out: MIC µg/ml compound (i) alone, strain E121", "value": "> 161", "unit": "µg/mL"},
      {"measurement": "MIC", "setting": "read-out: MIC µg/ml compound (i) alone, strain E124", "value": "> 160", "unit": "µg/mL"},
      {"measurement": "MIC", "setting": "read-out: MIC µg/ml compound (i) alone, strain JT4", "value": "> 160", "unit": "µg/mL"},
      {"measurement": "MIC", "setting": "read-out: MIC µg/ml compound (i) alone, strain JT9", "value": "> 160", "unit": "µg/mL"},
      {"measurement": "MIC", "setting": "read-out: MIC µg/ml compound (i) alone, strain JT39", "value": 160, "unit": "µg/mL"},
      {"measurement": "MIC", "setting": "read-out: MIC µg/ml compound (i) alone, strain JT68", "value": "> 160", "unit": "µg/mL"},
      {"measurement": "MIC", "setting": "read-out: MIC µg/ml compound (i) alone, strain P9", "value": "> 160", "unit": "µg/mL"},
      {"measurement": "MIC", "setting": "read-out: MIC µg/ml compound (i) alone, strain P19", "value": "> 160", "unit": "µg/mL"},
      {"measurement": "MIC", "setting": "read-out: MIC µg/ml compound (i) alone, strain SA15", "value": "> 160", "unit": "µg/mL"},
      {"measurement": "MIC µg/ml compound (i) compound (iii) (µg/ml) 1, Geometric mean (± 95% confidence limits)", "setting": "geometric mean of 11 E. coli strains, with compound (iii) 1 µg/ml", "value": "0.80 (0.16-4.1) µg/ml"},
      {"measurement": "MIC µg/ml compound (i) compound (iii) (µg/ml) 2, Geometric mean (± 95% confidence limits)", "setting": "geometric mean of 11 E. coli strains, with compound (iii) 2 µg/ml", "value": "0.59 (0.15-2.2) µg/ml"},
      {"measurement": "MIC µg/ml compound (i) compound (iii) (µg/ml) 5, Geometric mean (± 95% confidence limits)", "setting": "geometric mean of 11 E. coli strains, with compound (iii) 5 µg/ml", "value": "0.19 (0.07-0.53) µg/ml"},
      {"measurement": "MIC µg/ml compound (i) compound (iii) (µg/ml) 10, Geometric mean (± 95% confidence limits)", "setting": "geometric mean of 11 E. coli strains, with compound (iii) 10 µg/ml", "value": "0.08 (0.02-0.30) µg/ml"},
      {"measurement": "MIC µg/ml compound (i) compound (iii) (µg/ml) 1", "setting": "strain E96, with compound (iii) 1 µg/ml", "value": 0.62, "unit": "µg/mL"},
      {"measurement": "MIC µg/ml compound (i) compound (iii) (µg/ml) 2", "setting": "strain E96, with compound (iii) 2 µg/ml", "value": 0.62, "unit": "µg/mL"},
      {"measurement": "MIC µg/ml compound (i) compound (iii) (µg/ml) 5", "setting": "strain E96, with compound (iii) 5 µg/ml", "value": 0.31, "unit": "µg/mL"},
      {"measurement": "MIC µg/ml compound (i) compound (iii) (µg/ml) 10", "setting": "strain E96, with compound (iii) 10 µg/ml", "value": 0.31, "unit": "µg/mL"},
      {"measurement": "MIC µg/ml compound (i) compound (iii) (µg/ml) 1", "setting": "strain E110, with compound (iii) 1 µg/ml", "value": 0.16, "unit": "µg/mL"},
      {"measurement": "MIC µg/ml compound (i) compound (iii) (µg/ml) 2", "setting": "strain E110, with compound (iii) 2 µg/ml", "value": 0.16, "unit": "µg/mL"},
      {"measurement": "MIC µg/ml compound (i) compound (iii) (µg/ml) 5", "setting": "strain E110, with compound (iii) 5 µg/ml", "value": 0.08, "unit": "µg/mL"},
      {"measurement": "MIC µg/ml compound (i) compound (iii) (µg/ml) 10", "setting": "strain E110, with compound (iii) 10 µg/ml", "value": 0.02, "unit": "µg/mL"},
      {"measurement": "MIC µg/ml compound (i) compound (iii) (µg/ml) 1", "setting": "strain E121, with compound (iii) 1 µg/ml", "value": 0.62, "unit": "µg/mL"},
      {"measurement": "MIC µg/ml compound (i) compound (iii) (µg/ml) 2", "setting": "strain E121, with compound (iii) 2 µg/ml", "value": 0.31, "unit": "µg/mL"},
      {"measurement": "MIC µg/ml compound (i) compound (iii) (µg/ml) 5", "setting": "strain E121, with compound (iii) 5 µg/ml", "value": 0.16, "unit": "µg/mL"},
      {"measurement": "MIC µg/ml compound (i) compound (iii) (µg/ml) 10", "setting": "strain E121, with compound (iii) 10 µg/ml", "value": 0.08, "unit": "µg/mL"},
      {"measurement": "MIC µg/ml compound (i) compound (iii) (µg/ml) 1", "setting": "strain E124, with compound (iii) 1 µg/ml", "value": 1.25, "unit": "µg/mL"},
      {"measurement": "MIC µg/ml compound (i) compound (iii) (µg/ml) 2", "setting": "strain E124, with compound (iii) 2 µg/ml", "value": 0.62, "unit": "µg/mL"},
      {"measurement": "MIC µg/ml compound (i) compound (iii) (µg/ml) 5", "setting": "strain E124, with compound (iii) 5 µg/ml", "value": 0.31, "unit": "µg/mL"},
      {"measurement": "MIC µg/ml compound (i) compound (iii) (µg/ml) 10", "setting": "strain E124, with compound (iii) 10 µg/ml", "value": 0.16, "unit": "µg/mL"},
      {"measurement": "MIC µg/ml compound (i) compound (iii) (µg/ml) 1", "setting": "strain JT4, with compound (iii) 1 µg/ml", "value": 40, "unit": "µg/mL"},
      {"measurement": "MIC µg/ml compound (i) compound (iii) (µg/ml) 2", "setting": "strain JT4, with compound (iii) 2 µg/ml", "value": 20, "unit": "µg/mL"},
      {"measurement": "MIC µg/ml compound (i) compound (iii) (µg/ml) 5", "setting": "strain JT4, with compound (iii) 5 µg/ml", "value": 2.5, "unit": "µg/mL"},
      {"measurement": "MIC µg/ml compound (i) compound (iii) (µg/ml) 10", "setting": "strain JT4, with compound (iii) 10 µg/ml", "value": 1.25, "unit": "µg/mL"},
      {"measurement": "MIC µg/ml compound (i) compound (iii) (µg/ml) 1", "setting": "strain JT9, with compound (iii) 1 µg/ml", "value": 1.25, "unit": "µg/mL"},
      {"measurement": "MIC µg/ml compound (i) compound (iii) (µg/ml) 2", "setting": "strain JT9, with compound (iii) 2 µg/ml", "value": 0.62, "unit": "µg/mL"},
      {"measurement": "MIC µg/ml compound (i) compound (iii) (µg/ml) 5", "setting": "strain JT9, with compound (iii) 5 µg/ml", "value": 0.08, "unit": "µg/mL"},
      {"measurement": "MIC µg/ml compound (i) compound (iii) (µg/ml) 10", "setting": "strain JT9, with compound (iii) 10 µg/ml", "value": 0.08, "unit": "µg/mL"},
      {"measurement": "MIC µg/ml compound (i) compound (iii) (µg/ml) 1", "setting": "strain JT39, with compound (iii) 1 µg/ml", "value": 0.16, "unit": "µg/mL"},
      {"measurement": "MIC µg/ml compound (i) compound (iii) (µg/ml) 2", "setting": "strain JT39, with compound (iii) 2 µg/ml", "value": 0.16, "unit": "µg/mL"},
      {"measurement": "MIC µg/ml compound (i) compound (iii) (µg/ml) 5", "setting": "strain JT39, with compound (iii) 5 µg/ml", "value": 0.08, "unit": "µg/mL"},
      {"measurement": "MIC µg/ml compound (i) compound (iii) (µg/ml) 10", "setting": "strain JT39, with compound (iii) 10 µg/ml", "value": 0.02, "unit": "µg/mL"},
      {"measurement": "MIC µg/ml compound (i) compound (iii) (µg/ml) 1", "setting": "strain JT68, with compound (iii) 1 µg/ml", "value": 0.16, "unit": "µg/mL"},
      {"measurement": "MIC µg/ml compound (i) compound (iii) (µg/ml) 2", "setting": "strain JT68, with compound (iii) 2 µg/ml", "value": 0.31, "unit": "µg/mL"},
      {"measurement": "MIC µg/ml compound (i) compound (iii) (µg/ml) 5", "setting": "strain JT68, with compound (iii) 5 µg/ml", "value": 0.16, "unit": "µg/mL"},
      {"measurement": "MIC µg/ml compound (i) compound (iii) (µg/ml) 10", "setting": "strain JT68, with compound (iii) 10 µg/ml", "value": 0.08, "unit": "µg/mL"},
      {"measurement": "MIC µg/ml compound (i) compound (iii) (µg/ml) 1", "setting": "strain P9, with compound (iii) 1 µg/ml", "value": 1.25, "unit": "µg/mL"},
      {"measurement": "MIC µg/ml compound (i) compound (iii) (µg/ml) 2", "setting": "strain P9, with compound (iii) 2 µg/ml", "value": 0.62, "unit": "µg/mL"},
      {"measurement": "MIC µg/ml compound (i) compound (iii) (µg/ml) 5", "setting": "strain P9, with compound (iii) 5 µg/ml", "value": 0.16, "unit": "µg/mL"},
      {"measurement": "MIC µg/ml compound (i) compound (iii) (µg/ml) 10", "setting": "strain P9, with compound (iii) 10 µg/ml", "value": 0.08, "unit": "µg/mL"},
      {"measurement": "MIC µg/ml compound (i) compound (iii) (µg/ml) 1", "setting": "strain P19, with compound (iii) 1 µg/ml", "value": 0.31, "unit": "µg/mL"},
      {"measurement": "MIC µg/ml compound (i) compound (iii) (µg/ml) 2", "setting": "strain P19, with compound (iii) 2 µg/ml", "value": 0.31, "unit": "µg/mL"},
      {"measurement": "MIC µg/ml compound (i) compound (iii) (µg/ml) 5", "setting": "strain P19, with compound (iii) 5 µg/ml", "value": 0.08, "unit": "µg/mL"},
      {"measurement": "MIC µg/ml compound (i) compound (iii) (µg/ml) 10", "setting": "strain P19, with compound (iii) 10 µg/ml", "value": 0.02, "unit": "µg/mL"},
      {"measurement": "MIC µg/ml compound (i) compound (iii) (µg/ml) 1", "setting": "strain SA15, with compound (iii) 1 µg/ml", "value": 2.5, "unit": "µg/mL"},
      {"measurement": "MIC µg/ml compound (i) compound (iii) (µg/ml) 2", "setting": "strain SA15, with compound (iii) 2 µg/ml", "value": 1.25, "unit": "µg/mL"},
      {"measurement": "MIC µg/ml compound (i) compound (iii) (µg/ml) 5", "setting": "strain SA15, with compound (iii) 5 µg/ml", "value": 0.31, "unit": "µg/mL"},
      {"measurement": "MIC µg/ml compound (i) compound (iii) (µg/ml) 10", "setting": "strain SA15, with compound (iii) 10 µg/ml", "value": 0.08, "unit": "µg/mL"}
    ]}
  ]
}
